Experimental data published in ChEMBL document CHEMBL1201862, “PubChem BioAssay data set” (2004).
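Results reflect a 48-hour exposure of cells in 96-well plates to compound at five concentrations. At the GI50, growth is halved.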 Active and inactive are the calls of the source. Cut-off read from the data, not from the text of the source: active = GI50 up to about 1.1 µM and inactive = higher.

Experiments:
Assay in all cases: growth of human tumour cells (NCI), 48 h
COLO 205 = tested on: COLO 205
RPMI-8226 = tested on: RPMI-8226
UO-31 = tested on: UO-31
NCI/ADR-RES = tested on: NCI/ADR-RES
SK-MEL-5 = tested on: SK-MEL-5
RXF 393 = tested on: RXF 393
NCI-H460 = tested on: NCI-H460
LOX IMVI = tested on: LOX IMVI
SN12C = tested on: SN12C
HT-29 = tested on: HT-29
PC-3 = tested on: PC-3
T47D = tested on: T47D
SW-620 = tested on: SW-620
HCC 2998 = tested on: HCC 2998
SNB-19 = tested on: SNB-19
MOLT-4 = tested on: MOLT-4
OVCAR-4 = tested on: OVCAR-4
OVCAR-5 = tested on: OVCAR-5
IGROV-1 = tested on: IGROV-1
K562 = tested on: K562

SMILES	GI50 (COLO 205)	GI50 (RPMI-8226)	GI50 (UO-31)	GI50 (NCI/ADR-RES)	GI50 (SK-MEL-5)	GI50 (RXF 393)	GI50 (NCI-H460)	GI50 (LOX IMVI)	GI50 (SN12C)	GI50 (HT-29)	GI50 (PC-3)	GI50 (T47D)	GI50 (SW-620)	GI50 (HCC 2998)	GI50 (SNB-19)	GI50 (MOLT-4)	GI50 (OVCAR-4)	GI50 (OVCAR-5)	GI50 (IGROV-1)	GI50 (K562)
CCCCCCCCCCCCNC(C)=O	17.7 µM (inactive)	13.4 µM (inactive)	20 µM (inactive)	17.3 µM (inactive)	16.8 µM (inactive)	18.9 µM (inactive)	17.7 µM (inactive)	6.85 µM (inactive)	16.6 µM (inactive)	19.5 µM (inactive)	14.5 µM (inactive)	18.9 µM (inactive)	16.8 µM (inactive)	17.5 µM (inactive)	16.3 µM (inactive)	–	–	–	–	–
CSc1nc(SC)c2c(CO)c(Br)n(Cc3ccccc3)c2n1	> 100 µM (inactive)	92.9 µM (inactive)	12.7 µM (inactive)	24.7 µM (inactive)	48.9 µM (inactive)	28 µM (inactive)	15.7 µM (inactive)	25.3 µM (inactive)	35.4 µM (inactive)	33.8 µM (inactive)	43.1 µM (inactive)	14.9 µM (inactive)	> 100 µM (inactive)	43.3 µM (inactive)	29 µM (inactive)	> 100 µM (inactive)	16.1 µM (inactive)	56.9 µM (inactive)	16 µM (inactive)	–
c1ccc2c(c1)ncn2C1CCCCO1 (centres undefined)	> 100 µM (inactive)	> 100 µM (inactive)	> 100 µM (inactive)	> 100 µM (inactive)	> 100 µM (inactive)	> 100 µM (inactive)	–	> 100 µM (inactive)	> 100 µM (inactive)	> 100 µM (inactive)	> 100 µM (inactive)	> 100 µM (inactive)	> 100 µM (inactive)	> 100 µM (inactive)	> 100 µM (inactive)	> 100 µM (inactive)	> 100 µM (inactive)	> 100 µM (inactive)	> 100 µM (inactive)	> 100 µM (inactive)
CC(C)(CO)CNc1nc(N)nc(Cl)c1C=O	25.5 µM (inactive)	60.5 µM (inactive)	62.1 µM (inactive)	42.2 µM (inactive)	30.7 µM (inactive)	17.6 µM (inactive)	36.4 µM (inactive)	16.4 µM (inactive)	18.9 µM (inactive)	45.2 µM (inactive)	16.8 µM (inactive)	42.9 µM (inactive)	33.5 µM (inactive)	4.51 µM (inactive)	–	19.8 µM (inactive)	36.1 µM (inactive)	> 100 µM (inactive)	20.1 µM (inactive)	5.19 µM (inactive)
O=C1c2cccc3cccc(c23)C2NCCCN12 (centres undefined)	> 100 µM (inactive)	–	88.5 µM (inactive)	99.1 µM (inactive)	78.2 µM (inactive)	42.4 µM (inactive)	> 100 µM (inactive)	> 100 µM (inactive)	> 100 µM (inactive)	> 100 µM (inactive)	> 100 µM (inactive)	> 100 µM (inactive)	94 µM (inactive)	62.5 µM (inactive)	> 100 µM (inactive)	47.3 µM (inactive)	> 100 µM (inactive)	> 100 µM (inactive)	> 100 µM (inactive)	70.3 µM (inactive)
Cc1cc2c(c(O)c1-c1c(C)cc(O)c3c1C(=O)C=CC3=O)C(=O)C=CC2=O	0.279 µM (active)	0.226 µM (active)	1.63 µM (inactive)	2.49 µM (inactive)	4.01 µM (inactive)	0.757 µM (active)	6.43 µM (inactive)	1.11 µM (active)	2.37 µM (inactive)	1.58 µM (inactive)	4.02 µM (inactive)	1.34 µM (inactive)	1.59 µM (inactive)	3.13 µM (inactive)	18 µM (inactive)	0.0224 µM (active)	3 µM (inactive)	2.62 µM (inactive)	2.26 µM (inactive)	0.0337 µM (active)
COc1ccc(Cn2c(=O)c(OC)c(C)c3cc4ccccc4cc32)cc1	20.1 µM (inactive)	–	39.2 µM (inactive)	22.1 µM (inactive)	6.21 µM (inactive)	34.4 µM (inactive)	17.3 µM (inactive)	18.4 µM (inactive)	19.8 µM (inactive)	31.4 µM (inactive)	16.1 µM (inactive)	33.6 µM (inactive)	32.5 µM (inactive)	29 µM (inactive)	48.1 µM (inactive)	11.8 µM (inactive)	20.2 µM (inactive)	54.5 µM (inactive)	21.4 µM (inactive)	28.3 µM (inactive)
Cc1cc(C)n(C(=O)CSc2nc3ccc(I)cc3c(=O)n2Cc2ccccc2)n1	59.7 µM (inactive)	> 100 µM (inactive)	–	36.6 µM (inactive)	25.2 µM (inactive)	26.9 µM (inactive)	36.4 µM (inactive)	> 100 µM (inactive)	51.8 µM (inactive)	> 100 µM (inactive)	22.1 µM (inactive)	23.2 µM (inactive)	87.1 µM (inactive)	68.4 µM (inactive)	43.1 µM (inactive)	> 100 µM (inactive)	35.1 µM (inactive)	> 100 µM (inactive)	20 µM (inactive)	> 100 µM (inactive)
